In the NIST ThermoML archive (doi:10.1021/je5000605):
Numbers after ± are expanded uncertainties.

Conditions: 293.15 K; 101.33 kPa; Crystal; Pycnometric method

For `C=CC1=C(C(=O)O)N2C(=O)[C@@H](NC(=O)/C(=N\OCC(=O)O)c3csc(N)n3)[C@H]2SC1.O.O.O` [cefixime trihydrate], the molar volume was 0.0004982 ± 1e-05 m3/mol.
